Results as given in PubChem BioAssay (NCI).
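These data come from cells grown in 96-well plates and exposed to compound for 48 hours at five concentrations. GI50 is the concentration that inhibits growth by half. TGI denotes the concentration required for complete inhibition of growth.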

Assays:
Assay in all cases: NCI tumour cell line growth inhibition, 48 h
UACC-257 melanoma = test system: UACC-257 melanoma
OVCAR-8 ovarian = test system: OVCAR-8 ovarian
RXF 393 renal = test system: RXF 393 renal
NCI-H460 lung = test system: NCI-H460 lung
K-562 leukemia = test system: K-562 leukemia
A549 NSCLC = test system: A549 NSCLC
COLO 205 colon = test system: COLO 205 colon
SF-539 CNS = test system: SF-539 CNS
DU-145 prostate = test system: DU-145 prostate
MCF7 breast = test system: MCF7 breast

Structure (SMILES) | TGI (UACC-257 melanoma) | TGI (OVCAR-8 ovarian) | TGI (RXF 393 renal) | TGI (NCI-H460 lung) | TGI (K-562 leukemia) | TGI (A549 NSCLC) | TGI (COLO 205 colon) | TGI (SF-539 CNS) | GI50 (UACC-257 melanoma) | GI50 (OVCAR-8 ovarian) | GI50 (NCI-H460 lung) | GI50 (K-562 leukemia) | GI50 (DU-145 prostate) | TGI (DU-145 prostate) | GI50 (A549 NSCLC) | GI50 (COLO 205 colon) | GI50 (MCF7 breast) | TGI (MCF7 breast) | GI50 (RXF 393 renal) | GI50 (SF-539 CNS)
COc1ccc(/C=N/NS(=O)(=O)c2ccccc2)cc1 | > 100 µM | > 100 µM | > 100 µM | > 100 µM | > 100 µM | > 100 µM | > 100 µM | > 100 µM |  |  |  |  |  |  |  |  |  |  |  | 
CCc1ccc2c(c1)N(CCO)C1=C(C(=O)OC1)C2c1cc(OC)c(OC)c(OC)c1 (configuration not stated) | > 50 µM | 1.22 µM |  | 7.62 µM | > 30.4 µM | > 50 µM | 0.437 µM |  | 0.197 µM | 0.184 µM | 0.178 µM | 0.176 µM | 0.174 µM | 0.856 µM | 0.236 µM | 0.151 µM | 0.209 µM | > 50 µM |  | 
Cc1ccc(C2CC(c3ccc(Nc4ccnc5cc(Cl)ccc45)cc3)=NN2C=O)cc1 (configuration not stated) | > 100 µM | > 100 µM | > 100 µM | > 100 µM |  | > 100 µM | > 100 µM | > 100 µM | > 100 µM | > 100 µM | > 100 µM |  | > 100 µM | > 100 µM | 9.86 µM | 4.59 µM | 8.39 µM | > 100 µM | 4.89 µM | > 100 µM
CCCCC1(C(NC(=O)c2ccccc2Cl)c2ccncc2)C(=O)N(c2ccccc2)N(c2ccccc2)C1=O (configuration not stated) | > 100 µM | > 100 µM | > 100 µM | > 100 µM | > 100 µM | > 100 µM | 52.6 µM | > 100 µM |  |  |  |  |  |  |  |  |  |  |  | 
CN(C)c1ccc(C(O)C2=CC(=O)c3ccccc3C2=O)cc1 (configuration not stated) | 41 µM | 32.8 µM | 56.6 µM | > 100 µM |  | > 100 µM |  | 6.08 µM | 18.4 µM | 11.6 µM | 51.9 µM |  | 2.23 µM | 6.27 µM | 30.3 µM |  | 4.7 µM | > 100 µM | 4.29 µM | 2.6 µM
O=C(O)CCCCC1CCSS1 (configuration not stated) | > 100 µM | > 100 µM |  | > 100 µM | > 100 µM | > 100 µM | > 100 µM | > 100 µM |  |  |  |  |  | > 100 µM |  |  |  | > 100 µM |  | 
Cc1cc(S(N)(=O)=O)c(S/C(=N\NS(=O)(=O)c2ccccc2)c2ccc(Cl)cc2)cc1Cl | > 100 µM | > 100 µM |  | > 100 µM | > 100 µM | > 100 µM | > 100 µM | > 100 µM | 54.5 µM | > 100 µM | 65.4 µM | 59 µM | > 100 µM | > 100 µM | > 100 µM | 97.8 µM | 75.3 µM | > 100 µM |  | > 100 µM
C=C1CC[C@H]2C(C)=CC[C@H]3C(=C)C(=O)O[C@@H]3[C@@H]12 | > 100 µM | > 100 µM |  | > 100 µM | > 100 µM | > 100 µM | > 100 µM | > 100 µM |  |  |  |  |  | > 100 µM |  |  |  | > 100 µM |  | 
CS(=O)(=O)Nc1cc(-c2ccc3ncnc(Nc4cccc(Cl)c4)c3c2)cnc1Cl |  | 30.3 µM |  | 11.1 µM | 59.8 µM | 4.17 µM | 1.8 µM | 3.73 µM |  | 1.24 µM | 0.642 µM | 1.36 µM | 0.455 µM | 10.3 µM | 1.11 µM | 0.371 µM | 0.215 µM | 13.6 µM |  | 0.439 µM
O=[N+]([O-])/C=C/c1ccc(Cl)cc1[N+](=O)[O-] | 24.9 µM | 13.6 µM | 4.02 µM | 33.5 µM | 24.1 µM | 30.3 µM | 3.47 µM | 5.91 µM | 11.9 µM | 3.88 µM | 3.42 µM | 3.08 µM | 2.52 µM | 5.49 µM | 6.72 µM | 1.81 µM |  |  | 2.36 µM | 2.65 µM
Cn1cnnc1[S-].[Au+].c1ccc([PH+](c2ccccc2)c2ccccc2)cc1 | 2.94 µM |  | 2.8 µM |  |  | 21.3 µM |  | 3 µM | 1.35 µM |  |  |  | 1.34 µM | 2.66 µM | 2.92 µM |  |  |  | 1.42 µM | 1.61 µM
COc1cc(-c2nn(-c3cccc(NC(=O)CCN4CCN(c5ccccc5)CC4)c3)cc2-c2ccncc2)ccc1Cl | 95.5 µM | > 100 µM | 5.18 µM | 31.3 µM |  | > 100 µM |  | 18.4 µM | 5.29 µM | 4.5 µM | 3.11 µM |  | 4.35 µM | > 100 µM | 4.91 µM |  | 2.55 µM | > 100 µM | 1.91 µM | 2.53 µM
COc1cc2c(c(OC)c1OC)C(=O)NCCC2 | > 100 µM | > 100 µM | > 100 µM | > 100 µM | > 100 µM | > 100 µM | > 100 µM | > 100 µM |  |  |  |  |  |  |  |  |  | > 100 µM |  | 
COc1cc(N(C)C)c(OC)cc1C=C1C=CC=C1 |  | > 100 µM | > 100 µM | > 100 µM | > 100 µM | > 100 µM |  | > 100 µM |  |  |  |  |  | > 100 µM |  |  |  | > 100 µM |  | 
COc1cc(-c2nn(-c3cccc(NC(=O)CCNc4ccc(N5CCOCC5)cc4)c3)cc2-c2ccncc2)ccc1Cl | 8.72 µM | 16.1 µM | 8.08 µM | 30 µM |  | 25.1 µM |  | 19.4 µM | 2.38 µM | 2.92 µM | 2.95 µM |  | 4.04 µM | > 100 µM | 1.46 µM |  | 2.47 µM | 11.5 µM | 2.05 µM | 2.91 µM
Cc1ccc(S(=O)C(C)C(Cl)c2ccccc2)cc1 (configuration not stated) | > 100 µM | > 100 µM | > 100 µM | > 100 µM | > 100 µM |  | > 100 µM | > 100 µM |  |  |  |  |  |  |  |  |  |  |  | 
COc1cc(OC)c2c(=O)c3cccc([N+](=O)[O-])c3n(C)c2c1 | > 100 µM | > 100 µM | > 100 µM |  | > 100 µM | > 100 µM | > 100 µM | > 100 µM |  |  |  |  |  |  |  |  |  |  |  | 
O=C1OC(=O)C([Se]c2ccccc2)=C1[Se]c1ccccc1 | > 100 µM | > 100 µM | > 100 µM | > 100 µM | > 100 µM | > 100 µM | > 100 µM | > 100 µM |  |  |  |  |  |  |  |  |  |  |  | 
